Measured values as given in patent publication US9777015B2, “Useful thiophene derivatives in the treatment of diabetes” (METABRAIN RESEARCH, priority 2012, dated 2017).
Like-named read-outs stand apart in the source and are kept apart here.

Columns and labels:
INS-1 cells = assay: Stimulation test of insulin secretion by INS-1 cells; format: cell-based; details: Rattus norvegicus, 1 h incubation, 3.5 mM glucose; for activity at 10 µM: INS1, compound at 10 μM, read-out: INS-1 % of ctrl @ 10 μM; for activity at 50 µM: INS1, compound at 50 μM, read-out: INS-1 % of ctrl @ 50 μM
Method: The different compounds were tested on an INS-1 beta-pancreatic line in order to evaluate their capability of potentializing the insulin secretion in response to glucose. Very briefly, the cells are cultivated in a culture medium, RPMI 1640 with 10 mM glucose containing 1 mM of sodium pyruvate, 50 μM of 2-mercaptoethanol, 2 mM of glutamine, 10 mM of HEPES, 100 IU/mL of penicillin, 100 μg/mL of streptomycin and 10% of inactivated fetal calf serum, as described by Asfari et al.. For the insulin secretion test, the INS-1 cells are sown and cultivated in 96-well plates. After 3 days of cultivation at 37° C. in a humid atmosphere (95% air/5% CO2), the medium is removed and the cells are incubated for 16 h in a medium containing 5 mM of glucose and 1% of inactivated fetal calf serum. On the day of the test, the cells are washed with a Krebs buffer (pH 7.4) containing 0.1% of bovine albumin and then pre-incubated for 30 min at 37° C. in this same buffer containing 2.8 mM of glucose. Finally, the cells are again washed with Krebs buffer and then incubated for 1 h in the buffer of the secretion test (Krebs, pH 7.4 containing 0.1% of bovine albumin and 3.5 mM of glucose and molecules to be evaluated). At the end of the test, the cell supernatant is recovered in order to measure therein the secreted insulin, by means of an ELISA kit using a rat anti-insulin antibody (ELISA Alpco Cat no. 80-INSRTH-E10). Each condition is tested in triplicate. The 3.5 mM glucose, the 10^−7M GLP-1 and the Forskoline 10^−7/IBMX 10^−5M mixtures are used as positive controls of the test. A compound stimulates the secretion of insulin if this factor is greater than or equal to 130% of the control for a given glucose dose.

[1] = tested on: hepatocytes isolated from Wistar rat liver; assay: Test of inhibition of hepatic production of glucose (isolated hepatocytes, 3 h or 20 h incubation); format: cell-based; details: Rattus norvegicus, Hepatocyte, hepatic glucose production, rat hepatocytes; for activity at 50 µM: compound at 50 μM, read-out: HGP % of ctrl @ 50 μM; for activity at 100 µM: compound at 100 μM, read-out: HGP % of ctrl @ 100 μM
Method: The hepatocytes are isolated from Wistar rat liver having fasted for 24 h after perfusion of collagenase in the portal vein. The freshly isolated hepatocytes are sown in 6-well plates coated with collagen and containing an adhesion medium (Williams Medium). After adhesion, the medium is replaced with RPMI 1640 medium without any glucose, containing hydrocortisone (7.10^−5M) for a duration from 16 to 18 h. The next day, the glucose hepatic production test is conducted in a Krebs medium for 3 h. The basal conditions are cells incubated with only Krebs, the stimulated conditions are the cells placed in Krebs+lactate+pyruvate, the produced conditions are the cells exposed to chemical compounds in a Krebs/lactate/pyruvate medium. In the case when the compounds are dissolved in DMSO, all the conditions of the tests are met in the presence of a final concentration of 0.1% DMSO. The positive control of the test is the mercaptopicolinate known for its inhibitory action on hepatic production of glucose via the phosphoenolpyruvate carboxykinase. For short term treatments, the compounds are incubated for 3 h. For long term treatments, the compounds are incubated for 20 h at the moment when the hepatocytes are cultivated in RPMI and then added during the hepatic production test for 3 h. At the end of the 3 hours of incubation, the supernatant is recovered for measurement of glucose with a colorimetric method using glucose oxidase. The cells are lysed with a 0.1% NaOH aqueous solution in order to measure the amount of protein with the Lowry method. The results are expressed in mmols of glucose per mg of protein.

Compound	activity at 10 µM (INS-1 cells) [%]	activity at 50 µM ([1]; 3 h, 3 h incubation) [%]	activity at 100 µM ([1]; 3 h, 3 h incubation) [%]	activity at 50 µM (INS-1 cells) [%]	activity at 50 µM ([1]; 20 h, 20 h incubation) [%]	activity at 100 µM ([1]; 20 h, 20 h incubation) [%]
CCON=C(c1ccc(OC)cc1)c1cc(CC(=O)O)c(-c2ccc(Cl)cc2)s1 [compound 108, 2-(2-(4-chlorophenyl)-5-((ethoxyimino)(4-methoxyphenyl)methyl)thiophen-3-yl)acetic acid]	135	88	26			
CCOC(=O)Cc1cc(C(=O)c2cscn2)sc1-c1ccc(OC)cc1 [compound 33, ethyl 2-(2-(4-methoxyphenyl)-5-(thiazole-4-carbonyl)thiophen-3-yl)acetate]	199			280		
CN(C)CCNC(=O)Cc1cc(C(=O)c2ccco2)sc1-c1cccc(C#N)c1 [compound 142, 2-(2-(3-cyanophenyl)-5-(furan-2-carbonyl)thiophen-3-yl)-N-(2-(dimethylamino)ethyl)acetamide]	117			175		
C=C(C(=O)OCC)c1cc(C(=O)c2ccc(OC)cc2)sc1-c1ccc(Cl)cc1 [compound 187, ethyl 2-(2-(4-chlorophenyl)-5-(4-methoxybenzoyl)thiophen-3-yl)acrylate]	152			120		
O=C(O)Cc1cc(C(=O)C2CCCCC2)sc1-c1ccccc1 [compound 52, 2-(5-(cyclohexanecarbonyl)-2-phenylthiophen-3-yl)acetic acid]	127	61	44	140		
CCOC(=O)Cc1cc(C(=O)c2ccccc2)sc1-c1ccc(Cl)cc1 [compound 15, ethyl 2-(5-benzoyl-2-(4-chloro-phenyl)thiophen-3-yl)acetate]	150			160	63	32
CCOC(=O)Cc1cc(C(=O)CCCCl)sc1-c1ccc(OC)cc1 [compound 37, ethyl 2-(5-(4-chlorobutanoyl)-2-(4-methoxyphenyl)thiophen-3-yl)acetate]	157			107		
COC(=O)Cc1cc(C(=O)c2ccco2)sc1-c1ccccc1 [compound 3, methyl 2-(5-(furan-2-carbonyl)-2-phenylthiophen-3-yl)acetate]	152	82	74	318		
O=C(O)Cc1cc(C(=O)c2ccco2)sc1-c1cccc(F)c1F [compound 136, 2-(2-(2,3-difluorophenyl)-5-(furan-2-carbonyl)thiophen-3-yl) acetic acid]	120			158	64	43
CCOC(=O)Cc1cc(C(=O)c2ccc(Cl)cc2OC)sc1-c1ccc(Cl)cc1 [compound 155, ethyl 2-[5-(4-chloro-2-methoxy-benzoyl)-2-(4-chlorophenyl)-3-thienyl]acetate]		65	54	143		
CCOC(=O)Cc1cc(C(=O)c2ccoc2)sc1-c1ccc(OC)cc1 [compound 28, ethyl 2-(5-(furan-3-carbonyl)-2-(4-methoxyphenyl)thiophen-3-yl)acetate]	136			138		
CCOC(=O)Cc1cc(C(=O)c2ccc(Cl)o2)sc1-c1ccc(Cl)cc1 [compound 176, ethyl 2-[5-(5-chlorofuran-2-carbonyl)-2-(4-chlorophenyl)-3-thienyl]acetate]	144	76	36	246		
O=C(c1ccco1)c1cc(CC(=O)N2CCOCC2)c(-c2ccc(Cl)cc2)s1 [compound 91, 2-(2-(4-chlorophenyl)-5-(furan-2-carbonyl)thiophen-3-yl)-1-morpholino ethanone]	184			152		
N#CCc1cc(C(=O)c2ccco2)sc1-c1ccc(F)cc1 [compound 145, 2-(2-(4-fluorophenyl)-5-(furan-2-carbonyl)thiophen-3-yl)acetonitrile]	125			145		
CN(C)CCNC(=O)Cc1cc(C(=O)c2ccco2)sc1-c1ccc(Cl)cc1 [compound 95, 2-(2-(4-chlorophenyl)-5-(furan-2-carbonyl)thiophen-3-yl)-N-(2-(dimethylamino)ethyl)acetamide]	144			147		
COc1ccc(C(=O)c2cc(CC(=O)NCCN(C)C)c(-c3ccc(Cl)cc3)s2)cc1 [compound 89, 2-(2-(4-chlorophenyl)-5-(4-methoxybenzoyl)thiophen-3-yl)-N-(2-(dimethylamino)ethyl)acetamide]	171					
CCOC(=O)Cc1cc(C(=O)N2CCOCC2)sc1-c1ccc(Cl)cc1 [compound 114, ethyl 2-(2-(4-chlorophenyl)-5-(morpholine-4-carbonyl)thiophen-3-yl)acetate]	150					
N#Cc1ccc(-c2sc(C(=O)c3ccco3)cc2CC(=O)O)cc1 [compound 140, 2-(2-(4-cyanophenyl)-5-(furan-2-carbonyl)thiophen-3-yl)acetic acid]	123			188		
COc1ccc(-c2sc(C(=O)c3cccc(OC)c3)cc2CC(=O)OCC2O[C@H]3OC(C)(C)O[C@H]3[C@H]3OC(C)(C)O[C@@H]23)cc1 (stereo partly drawn) [compound 85, ((3aS,5aS,8aS,8bS)-2,2,7,7-tetramethyltetrahydro-3aH-bis([1,3]dioxolo)[4,5-b:4′,5′-d]pyran-5-yl)methyl 2-(5-(3-methoxy-benzoyl)-2-(4-methoxy-phenyl)thiophen-3-yl)acetate]	146					
CCOC(=O)Cc1cc(C(=O)c2ccco2)sc1-c1ccc(C#N)cc1 [compound 139, ethyl 2-(2-(4-cyanophenyl)-5-(furan-2-carbonyl)thiophen-3-yl)acetate]	183			247		
COc1ccc(C(=O)c2cc(CC(=O)N3CCN(C)CC3)c(-c3ccc(Cl)cc3)s2)cc1 [compound 93, 2-(2-(4-chlorophenyl)-5-(4-methoxybenzoyl)thiophen-3-yl)-1-(4-methylpiperazin-1-yl)ethanone]	149					
CCOC(=O)Cc1cc(C(=O)c2cccc(OC)c2)sc1-c1ccc(OC)cc1 [compound 30, ethyl 2-(5-(3-methoxybenzoyl)-2-(4-methoxyphenyl)thiophen-3-yl)acetate]	157					
COCC(C(=O)OC(C)C)c1cc(C(=O)c2ccc(OC)cc2)sc1-c1ccc(Cl)cc1 (stereo not shown) [compound 125]	154			126		
CC(C)OC(=O)Cc1cc(C(=O)c2ccco2)sc1-c1ccc(Cl)c(Cl)c1 [compound 39, isopropyl 2-(2-(3,4-dichlorophenyl)-5-(furan-2-carbonyl)thiophen-3-yl)acetate]	143			389		
CCOC(=O)Cc1cc(C(=O)c2ccco2)sc1-c1ccc(OC)cc1 [compound 22, ethyl 2-(5-(furan-2-carbonyl)-2-(4-methoxyphenyl)thiophen-3-yl)acetate]	152			207		
COc1ccc(C(=O)c2cc(CC(=O)NCCO)c(-c3ccc(Cl)cc3)s2)cc1 [compound 96, 2-(2-(4-chlorophenyl)-5-(4-methoxybenzoyl)thiophen-3-yl)-N-(2-hydroxyethyl)acetamide]	177					
